Test results taken from ChEMBL document CHEMBL5038653, “A Brain-Penetrant and Bioavailable Pyrazolopiperazine BACE1 Inhibitor Elicits Sustained Reduction of Amyloid β In Vivo” (ACS Med Chem Lett, 2022).

Tests used:
[1] = In vivo inhibition of BACE1 in Beagle dog assessed as reduction of amyloid beta (1 to 42 residues) levels in CSF at 5 mg/kg, po measured at 8 to 24 hrs; type: functional, Canis lupus familiaris; set-up: scale not given: the % may be the effect or the level left; conditions: time 8-24 hrs
[2] = target: hERG (KCNH2) (Homo sapiens, UniProt Q12809); assay: Inhibition of hERG expressed in HEK293 cells at 3 uM at -80 mV holding potential by automated patch-clamp method; type: toxicity, cell-based; conditions: HEK293 cells expressing hERG
[3] = target: Cytochrome P450 2D6 (Homo sapiens, UniProt P10635); assay: Inhibition of human CYP2D6 by fluorescence plate reader analysis; type: ADME
[4] = target: Cathepsin D (Homo sapiens, UniProt P07339); assay: Inhibition of Cathepsin D (unknown origin)
[5] = target: Beta-secretase 1 (Homo sapiens, UniProt P56817); assay: Inhibition of BACE1 (1 to 454 residues) (unknown origin) using APP harboring Swedish Lys/Met mutant-derived peptide as substrate by FRET assay
[6] = Ratio of apparent permeability across apical to basolateral side in the presence of P-gp inhibitor elacridar to the absence of P-gp inhibitor elacridar in dog MDCK-MDR1 cells at 5 uM incubated for 120 mins; type: ADME, cell-based, Canis lupus familiaris; conditions: 2 h
[7] = Dissociation constant, pKa of the compound by fast UV-spectrometric titration analysis; type: physicochemical
[8] = Metabolic stability in human liver microsomes assessed as metabolite formation after 15 mins in presence of NADPH by LC-MS analysis; type: ADME, Microsome; conditions: 0.25 h
[9] = Free drug concentration in rat brain measured after 5 hrs by HPLC-MS/MS method; type: ADME, tissue-based
[10] = Free drug concentration in human plasma measured after 4.5 hrs by HPLC-MS/MS method; type: ADME, cell-free
[11] = Free drug concentration in mouse plasma measured after 4.5 hrs by HPLC-MS/MS method; type: ADME, cell-free
[12] = Free drug concentration in dog plasma measured after 4.5 hrs by HPLC-MS/MS method; type: ADME, cell-free, Canis lupus familiaris
[13] = In vivo inhibition of BACE1 in Beagle dog assessed as reduction of amyloid beta (1 to 42 residues) levels in CSF at 2.5 mg/kg, po measured after 8 hrs by electrochemiluminescence assay; type: functional, Canis lupus familiaris; set-up: scale not given: the % may be the effect or the level left
[14] = Drug level in CD-1 mouse plasma at 10 mg/kg, po measured at 1 hr post dose; type: ADME, organism-based
[15] = Drug level in CD-1 mouse brain at 10 mg/kg, po measured at 1 hr post dose; type: ADME, organism-based; conditions: read-out: Ct
[16] = Ratio of unbound drug concentration in brain to blood in CD-1 mouse at 10 mg/kg, po measured at 1 hr post dose; type: ADME, organism-based
[17] = AUC (0 to infinity) in mouse at 0.28 mg/kg, iv; type: ADME, organism-based; set-up: time infinity, route intravenous, dose 0.28 mg/kg; conditions: in vivo
[18] = AUC (0 to infinity) in rat at 0.25 mg/kg, iv; type: ADME, organism-based; set-up: route intravenous, time infinity, dose 0.25 mg/kg; conditions: in vivo
[19] = AUC (0 to infinity) in dog at 0.25 mg/kg, iv; type: ADME, organism-based, Canis lupus familiaris; set-up: route intravenous, time infinity, dose 0.25 mg/kg; conditions: in vivo
[20] = Clearance in mouse plasma at 0.28 mg/kg, iv; type: ADME, organism-based
[21] = Clearance in rat plasma at 0.25 mg/kg, iv; type: ADME, organism-based
[22] = Clearance in dog plasma at 0.25 mg/kg, iv; type: ADME, organism-based, Canis lupus familiaris
[23] = Clearance in rat at 0.25 mg/kg, iv relative to liver blood flow; type: ADME, organism-based; conditions: in vivo
[24] = Clearance in dog at 0.25 mg/kg, iv to liver blood flow; type: ADME, organism-based, Canis lupus familiaris; conditions: in vivo
[25] = Volume of distribution at steady state in mouse at 0.28 mg/kg, iv; type: ADME, organism-based; conditions: in vivo, read-out: Vdss
[26] = Half life in mouse at 0.28 mg/kg, iv; type: ADME, organism-based; conditions: in vivo
[27] = Half life in rat at 0.25 mg/kg, iv; type: ADME, organism-based; conditions: in vivo
[28] = Tmax in mouse at 2.1 mg/kg, po; type: ADME, organism-based; conditions: in vivo
[29] = Tmax in rat at 2.3 mg/kg, po; type: ADME, organism-based; conditions: in vivo
[30] = Tmax in dog at 2.5 mg/kg, po; type: ADME, organism-based, Canis lupus familiaris; conditions: in vivo
[31] = Oral bioavailability in mouse at 2.1 mg/kg; type: ADME, organism-based; conditions: in vivo
[32] = Oral bioavailability in rat at 2.3 mg/kg; type: ADME, organism-based; conditions: in vivo
[33] = Drug level in CD-1 mouse plasma at 10 mg/kg, po measured at 2 hr post dose; type: ADME, organism-based
[34] = Drug level in CD-1 mouse brain at 10 mg/kg, po measured at 2 hr post dose; type: ADME, organism-based; conditions: read-out: Ct
[35] = Drug level in CD-1 mouse brain at 10 mg/kg, po measured at 4 hr post dose; type: ADME, organism-based; conditions: read-out: Ct
[36] = Ratio of unbound drug concentration in brain to blood in CD-1 mouse at 10 mg/kg, po measured at 2 hr post dose; type: ADME, organism-based
[37] = target: T1, Cytochrome P450 3A4 (Homo sapiens, UniProt P08684); assay: Inhibition of human CYP3A4 using testosterone as substrate by fluorescence plate reader analysis; type: ADME
[38] = target: T1, Cytochrome P450 3A4; assay: Inhibition of human CYP3A4 using midazolam as substrate by fluorescence plate reader analysis; type: ADME
[39] = Apparent permeability across apical to basolateral side in dog MDCK-MDR1 cells at 5 uM incubated for 120 mins; type: ADME, cell-based, Canis lupus familiaris
[40] = target: Cytochrome P450 2C9 (Homo sapiens, UniProt P11712); assay: Inhibition of human CYP2C9 by fluorescence plate reader analysis; type: ADME
[41] = Cardiotoxicity in guinea pig assessed as effect on QRS interval upto 5 mg/kg, iv administered over 10 mins at 30 mins interval by ECG analysis; type: toxicity, organism-based, Cavia porcellus; conditions: in vivo
[42] = Cardiotoxicity in guinea pig assessed as effect on QT cB interval upto 5 mg/kg, iv administered over 10 mins at 30 mins interval by ECG analysis; type: toxicity, organism-based, Cavia porcellus; conditions: in vivo
[43] = Toxicity in Beagle dog assessed as behavioral changes at 0.31 to 5 mg/kg, po; type: organism-based, Canis lupus familiaris; conditions: in vivo, dose 0.31-5 mg/kg
[44] = Toxicity in Beagle dog assessed as clinical pathological changes at 0.31 to 5 mg/kg, po; type: organism-based, Canis lupus familiaris; conditions: in vivo, dose 0.31-5 mg/kg
[45] = In vivo inhibition of CD-1 mouse assessed as remaining amyloid beta (1 to 42 residues) levels in CSF at 10 mg/kg, po measured at 2 hrs; type: functional
[46] = tested on: MDR1; assay: Efflux ratio of apparent permeability in dog MDCK-MDR1 cells; type: ADME, cell-based, Canis lupus familiaris

T1 sequence (P08684 whole entry): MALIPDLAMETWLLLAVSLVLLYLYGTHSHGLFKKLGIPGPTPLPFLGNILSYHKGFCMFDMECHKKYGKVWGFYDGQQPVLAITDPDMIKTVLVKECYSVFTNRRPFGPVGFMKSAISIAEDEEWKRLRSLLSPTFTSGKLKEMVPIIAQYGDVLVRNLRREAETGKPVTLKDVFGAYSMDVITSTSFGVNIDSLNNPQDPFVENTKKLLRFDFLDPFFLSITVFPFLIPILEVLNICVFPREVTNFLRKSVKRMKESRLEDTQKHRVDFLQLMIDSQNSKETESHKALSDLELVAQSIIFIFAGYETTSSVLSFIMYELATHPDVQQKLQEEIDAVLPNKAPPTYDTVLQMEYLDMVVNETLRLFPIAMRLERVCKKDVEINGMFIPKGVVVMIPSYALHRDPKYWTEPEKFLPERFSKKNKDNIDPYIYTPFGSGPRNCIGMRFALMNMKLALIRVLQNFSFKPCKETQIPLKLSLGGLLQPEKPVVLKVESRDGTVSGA
Sequence of hERG (KCNH2) (Q12809 whole entry): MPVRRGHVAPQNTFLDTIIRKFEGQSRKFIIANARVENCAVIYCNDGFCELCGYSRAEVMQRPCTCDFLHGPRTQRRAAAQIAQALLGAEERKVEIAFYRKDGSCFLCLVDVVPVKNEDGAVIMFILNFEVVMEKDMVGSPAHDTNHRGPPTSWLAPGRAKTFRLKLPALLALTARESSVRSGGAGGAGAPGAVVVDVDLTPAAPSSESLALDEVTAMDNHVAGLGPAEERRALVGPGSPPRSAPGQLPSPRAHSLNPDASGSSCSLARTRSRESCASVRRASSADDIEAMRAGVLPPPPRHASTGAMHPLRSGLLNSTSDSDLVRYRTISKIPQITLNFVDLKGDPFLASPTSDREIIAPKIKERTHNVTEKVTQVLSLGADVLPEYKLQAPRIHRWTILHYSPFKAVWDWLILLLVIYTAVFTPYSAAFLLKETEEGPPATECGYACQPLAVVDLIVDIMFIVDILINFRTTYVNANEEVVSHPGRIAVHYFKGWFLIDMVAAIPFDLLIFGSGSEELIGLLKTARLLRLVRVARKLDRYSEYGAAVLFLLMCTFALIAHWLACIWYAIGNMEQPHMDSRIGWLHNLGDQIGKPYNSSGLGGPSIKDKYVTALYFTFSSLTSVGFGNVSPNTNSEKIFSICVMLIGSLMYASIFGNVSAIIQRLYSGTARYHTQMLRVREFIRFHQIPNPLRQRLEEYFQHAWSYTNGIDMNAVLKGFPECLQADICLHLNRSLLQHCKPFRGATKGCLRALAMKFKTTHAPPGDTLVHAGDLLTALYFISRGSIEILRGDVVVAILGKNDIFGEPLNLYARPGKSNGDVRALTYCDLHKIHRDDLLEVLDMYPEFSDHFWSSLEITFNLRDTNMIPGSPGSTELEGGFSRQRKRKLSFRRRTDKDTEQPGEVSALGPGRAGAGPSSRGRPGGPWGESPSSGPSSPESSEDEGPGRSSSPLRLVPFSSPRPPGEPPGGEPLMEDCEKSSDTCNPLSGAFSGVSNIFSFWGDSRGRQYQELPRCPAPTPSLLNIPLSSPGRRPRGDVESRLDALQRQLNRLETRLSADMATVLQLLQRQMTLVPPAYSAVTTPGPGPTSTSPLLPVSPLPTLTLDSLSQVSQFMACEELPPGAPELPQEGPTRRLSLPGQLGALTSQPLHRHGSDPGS
Sequence of Beta-secretase 1 (P56817 whole entry, the tested form may be a part): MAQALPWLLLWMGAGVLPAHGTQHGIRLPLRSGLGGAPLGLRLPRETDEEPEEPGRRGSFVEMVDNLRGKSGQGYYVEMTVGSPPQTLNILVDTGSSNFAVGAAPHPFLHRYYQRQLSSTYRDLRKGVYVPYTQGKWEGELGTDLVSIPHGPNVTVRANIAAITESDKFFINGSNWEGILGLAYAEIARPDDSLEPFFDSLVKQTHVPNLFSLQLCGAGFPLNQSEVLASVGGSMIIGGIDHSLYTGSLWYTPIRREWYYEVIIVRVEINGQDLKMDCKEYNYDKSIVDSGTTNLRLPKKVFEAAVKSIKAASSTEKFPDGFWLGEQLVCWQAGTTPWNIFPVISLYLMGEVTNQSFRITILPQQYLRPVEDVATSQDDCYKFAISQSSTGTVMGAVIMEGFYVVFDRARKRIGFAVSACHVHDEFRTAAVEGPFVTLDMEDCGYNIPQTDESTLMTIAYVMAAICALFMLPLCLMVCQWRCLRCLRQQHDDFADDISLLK
Sequence of Cytochrome P450 2D6 (P10635 whole entry): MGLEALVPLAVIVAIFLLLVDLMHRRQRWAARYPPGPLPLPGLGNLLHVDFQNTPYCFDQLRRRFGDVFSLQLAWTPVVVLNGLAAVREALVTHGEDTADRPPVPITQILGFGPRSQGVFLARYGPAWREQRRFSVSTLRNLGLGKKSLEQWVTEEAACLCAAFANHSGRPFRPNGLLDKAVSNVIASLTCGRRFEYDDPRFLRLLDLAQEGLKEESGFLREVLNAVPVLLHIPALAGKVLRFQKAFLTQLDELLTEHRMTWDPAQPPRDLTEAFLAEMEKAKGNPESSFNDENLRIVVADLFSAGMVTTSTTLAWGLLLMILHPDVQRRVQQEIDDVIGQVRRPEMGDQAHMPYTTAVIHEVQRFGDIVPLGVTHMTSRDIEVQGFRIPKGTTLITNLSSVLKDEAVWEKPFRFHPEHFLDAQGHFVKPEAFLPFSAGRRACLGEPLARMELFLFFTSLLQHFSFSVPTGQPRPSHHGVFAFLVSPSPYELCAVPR
Sequence of Cytochrome P450 2C9 (P11712 whole entry): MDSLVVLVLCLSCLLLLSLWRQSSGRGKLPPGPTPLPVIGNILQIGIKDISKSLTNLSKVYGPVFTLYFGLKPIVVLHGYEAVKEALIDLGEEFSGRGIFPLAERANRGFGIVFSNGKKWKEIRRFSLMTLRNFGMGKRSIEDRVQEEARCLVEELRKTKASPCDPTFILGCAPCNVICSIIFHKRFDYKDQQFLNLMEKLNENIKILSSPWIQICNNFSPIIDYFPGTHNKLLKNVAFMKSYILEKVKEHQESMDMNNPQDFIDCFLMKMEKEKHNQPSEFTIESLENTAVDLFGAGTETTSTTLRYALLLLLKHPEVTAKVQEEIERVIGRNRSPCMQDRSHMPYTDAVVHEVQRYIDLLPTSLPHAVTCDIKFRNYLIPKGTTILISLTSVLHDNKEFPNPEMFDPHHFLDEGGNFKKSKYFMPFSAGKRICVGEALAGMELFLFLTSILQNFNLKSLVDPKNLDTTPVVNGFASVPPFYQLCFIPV
Sequence of Cathepsin D (P07339 65-162 limits assumed): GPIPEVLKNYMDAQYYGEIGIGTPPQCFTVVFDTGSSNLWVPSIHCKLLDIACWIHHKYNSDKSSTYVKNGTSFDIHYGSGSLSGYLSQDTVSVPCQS
Sequence of Cathepsin D (P07339 169-412 limits assumed): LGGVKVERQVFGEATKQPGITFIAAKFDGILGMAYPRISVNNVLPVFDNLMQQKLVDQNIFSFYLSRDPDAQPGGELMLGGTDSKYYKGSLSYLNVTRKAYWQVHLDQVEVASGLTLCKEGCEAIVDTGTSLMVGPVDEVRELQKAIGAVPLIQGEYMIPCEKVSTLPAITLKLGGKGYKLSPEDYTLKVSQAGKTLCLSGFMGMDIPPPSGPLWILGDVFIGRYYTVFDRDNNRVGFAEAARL

SMILES: COc1cnc(C(=O)Nc2ccc(F)c([C@]3(C)Cn4nc(C#N)cc4C(N)=N3)c2)cn1
- Activity [1]: 80%
- inhibition at 3 µM [2]: 48%
- IC50 [3]: > 30 µM
- IC50 [4]: > 100 µM
- IC50 [5]: 0.0029 µM
- Ratio [6]: 1.56
- pKa [7]: 7.1
- Drug metabolism [8]: 8%
- fraction unbound at 5 h [9]: 0.015
- fraction unbound at 4.5 h [10]: 0.28
- fraction unbound at 4.5 h [11]: 0.05
- fraction unbound at 4.5 h [12]: 0.24
- Activity [13]: 85%
- concentration at 1 h [14]: 591 ng/mL
- concentration at 1 h [15]: 621 ng/g
- Kp uu at 1 h [16]: 0.3
- AUC [17]: 206 ng·h/mL
- AUC [18]: 219 ng·h/mL
- AUC [19]: 654 ng·h/mL
- clearance [20]: 23 mL/min/kg
- clearance [21]: 19 mL/min/kg
- clearance [22]: 6 mL/min/kg
- CL [23]: 35%
- CL [24]: 20%
- Vd [25]: 5.3 L/kg
- half-life [26]: 2.8 h
- half-life [27]: 4.3 h
- Tmax [28]: 2.3 h
- Tmax [29]: 5 h
- Tmax [30]: 2.3 h
- bioavailability [31]: > 100%
- bioavailability [32]: 59%
- concentration at 2 h [33]: 866 ng/mL
- concentration at 2 h [34]: 888 ng/g
- concentration at 4 h [35]: 402 ng/g
- Kp uu at 2 h [36]: 0.29
- IC50 [37]: > 30 µM
- IC50 [38]: > 30 µM
- Papp A→B at 2 h, 5 µM [39]: 13.1 ×10⁻⁶ cm/s
- IC50 [40]: > 30 µM
- Activity [41]: Non-Toxic
- Activity [42]: Non-Toxic
- Activity [43]: Non-Toxic
- Activity [44]: Non-Toxic
- Activity [45]: 53%
- efflux ratio [46]: 5.3
